The text below walks through data of patent publication US11484032B2, “Compositions for inhibition of insect sensing” (Vanderbilt University, priority 2011, dated 2022).

The target of the test is T1, AgORco+AgOR10 (Anopheles gambiae, UniProt Q7QCC7).
T1 construct: expressed in transfected cells
T1 sequence (Q7QCC7 1-478): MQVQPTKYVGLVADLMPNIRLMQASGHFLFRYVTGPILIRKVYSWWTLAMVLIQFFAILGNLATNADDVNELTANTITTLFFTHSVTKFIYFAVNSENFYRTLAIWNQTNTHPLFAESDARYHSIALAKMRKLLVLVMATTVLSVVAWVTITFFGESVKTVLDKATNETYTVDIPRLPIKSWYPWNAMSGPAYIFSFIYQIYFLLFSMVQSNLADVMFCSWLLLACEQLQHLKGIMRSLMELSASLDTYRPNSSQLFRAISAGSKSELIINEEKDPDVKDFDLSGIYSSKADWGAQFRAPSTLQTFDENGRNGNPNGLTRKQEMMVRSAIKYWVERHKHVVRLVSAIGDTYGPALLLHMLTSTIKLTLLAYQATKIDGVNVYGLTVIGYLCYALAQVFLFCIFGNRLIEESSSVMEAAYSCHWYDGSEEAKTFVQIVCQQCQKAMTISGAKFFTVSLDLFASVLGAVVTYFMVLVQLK
Briefly: Fluo-4 Ca2+ imaging, HEK293 cells expressing Orco+AgOR10. It counts as cell-based. Also on record: Orco 10 + Orco Angatonist % Reduction / Orco 10 + Orco Agonist % of control: concentration or dose not given beside the values. Particulars: for Orco 10 + Orco Angatonist % Reduction: antagonist mode; for Orco 10 + Orco Potentiator % increase: potentiator mode. From the text: For transient transfections, ORs were cloned into pCl (Promega) and transfected into Flp-In™ T-REx™293 cell lines (Invitrogen) with Fu GENE6 (Roche). For the creation of stable cell lines, a cell culture expression vector capable of expressing Orco in conjunction with a conventional OR, pcDNA5/FRT/TO (Invitrogen) was modified to create two individual expression cassettes each under the control of a separate CMV/Tet02 promoter and a BGH poly-adenylation signal. Cells (as above) were transfected with the modified pcDNA5 plasmid along with POG44 (a Flp recombinase expression plasmid) to facilitate site-specific recombination. Stable cell lines were selected using Hygromycin B (Invitrogen). Cells were maintained in DMEM (Invitrogen) supplemented with 10% Tetracycline-free FBS (HyClone) and 15 ng/ml Blasticidin. For fluorometric Ca2+ measurements, stable lines expressing ORs of interest were seeded at 20,000 cells/well in black wall, poly-lysine coated 384-well cell culture plates (Greiner) and treated with […] tetracycline (Sigma) overnight to induce OR expression. Cells were dye-loaded with 1.8 uM Fluo-4 AM (Molecular Probes), 2.5 mM Probenecid (Molecular Probes) in assay buffer (20 mM HEPES, IX HBSS) for 45 minutes at 37° C. in 5% CO2 prior to each assay. Ca^2+ mobilization was assayed in an FDSS6000 (Hamamatsu). Baseline readings were taken for 20 s before automated addition of compound previously diluted in DMSO and assay buffer. Ratios were described as Maximum/Minimum response and each response was normalized to the maximum responder.
As part of an ongoing, cell based calcium imaging screen for novel small-molecule modulators of AgORs that might disrupt olfactory-driven mosquito behaviors (Rinker et al manuscript in preparation), the inventors identified a number of compounds that activated AgOR10+AgORco-expressing human embryonic kidney (HEK293) cells. One of these compounds, (FIG. 3 A) denoted here as VUAA1, elicited activity consistent with allosteric agonism and was pursued for its novel properties. The identity of VUAA1 was verified using high-resolution mass spectrometry (HRMS) as well as ^1H and ^13C NMR. […] As AgORco was the common element among these functional responses, the inventors postulated that VUAA1 was a potential AgORco agonist.

Take `CCn1c(COc2ccc(C)cc2)nnc1SCC(=O)Nc1cc(OC)ccc1OC`: for the setting “Orco 10 + Orco”, the “Orco 10 + Orco Angatonist % Reduction” value is 59.64%.

For `CCOC(=O)CN(C(=O)CSc1nnc(COc2ccc(OC)cc2)n1CC)c1ccccc1`, the “Orco 10 + Orco Angatonist % Reduction” value (Orco 10 + Orco) turned out to be 49.09%.

Turning to `CCn1c(CNC(=O)COc2ccc(C(C)C)cc2)nnc1SCC(=O)Nc1cc(F)ccc1C`, where the note is “Orco 10 + Orco”, the “Orco 10 + Orco Angatonist % Reduction” value was 31.15%.

As to `CCn1c(SCC(=O)Nc2ccc(N(C)C)cc2)nnc1-c1cccc(C)c1`, the “Orco 10 + Orco Angatonist % Reduction” value (Orco 10 + Orco) was 29.54%.

`CCn1c(CNC(=O)COc2ccc(C(C)C)cc2)nnc1SCC(=O)Nc1ccccc1`: under “Orco 10 + Orco”, the “Orco 10 + Orco Angatonist % Reduction” value is 13.06%.

Take `CCn1c(SCC(=O)Nc2cc(C)ccc2C)nnc1-c1cnccn1`: the “Orco 10 + Orco Potentiator % increase” value (Orco 10 + Orco) came out at 21.48%.

In the case of `CCn1c(SCC(=O)Nc2ccc(OC)cc2)nnc1-c1ccc2[nH]c(C)c(C)c2c1`, the “Orco 10 + Orco Angatonist % Reduction” value (Orco 10 + Orco) was 24.94%.

Take `CCn1c(COc2ccc(OC)cc2)nnc1SCC(=O)Nc1cc(OC)ccc1OC`: under “Orco 10 + Orco”, the “Orco 10 + Orco Angatonist % Reduction” value amounted to 7.54%.

Regarding `COc1cc(Cl)c(C)cc1CSc1nnc(-c2cccnc2)n1Cc1ccco1`, the “Orco 10 + Orco Angatonist % Reduction” value (Orco 10 + Orco) is 28.40%.

For the compound `O=C(CSc1nnc(-c2cccnc2)n1Cc1ccco1)N1c2ccccc2Sc2ccccc21` [drawing 490], the “Orco 10 + Orco Angatonist % Reduction” value (Orco 10 + Orco) is 46.34%.

`CCn1c(COc2ccccc2)nnc1SCC(=O)Nc1cc(OC)ccc1OC`: the “Orco 10 + Orco Angatonist % Reduction” value (Orco 10 + Orco) amounted to 38.62%.

Take `O=C(CSc1nnc(-c2cccnc2)n1-c1ccccc1)NCc1ccc2c(c1)OCO2`: the “Orco 10 + Orco Potentiator % increase” value (Orco 10 + Orco) amounted to 16.29%.

On to `CCN(CC)S(=O)(=O)c1ccc(-c2nnc(SCC(=O)N3c4ccccc4CC3C)n2CC)cc1` (stereo not drawn), for which the “Orco 10 + Orco Angatonist % Reduction” value (Orco 10 + Orco) was 31.53%.

On to `CCOC(=O)c1cccc(NC(=O)CSc2nnc(CNc3ccc(C)cc3)n2CC)c1`, for which the “Orco 10 + Orco Angatonist % Reduction” value (Orco 10 + Orco) was 62.21%.

As for `O=C(CSc1nnc(-c2cccnc2)n1-c1ccc(SC(F)F)cc1)N1CCCc2ccccc21`, the “Orco 10 + Orco Angatonist % Reduction” value (Orco 10 + Orco) was determined as 24.77%.

`COc1cc(Cl)c(C)cc1NC(=O)CSc1nnc(-c2cccnc2)n1Cc1ccco1`: the “Orco 10 + Orco Angatonist % Reduction” value (Orco 10 + Orco) turned out to be 25.31%.

Regarding `O=C(CSc1nnc(-c2cccnc2)n1Cc1ccco1)c1ccc(Br)cc1`, under “Orco 10 + Orco”, the “Orco 10 + Orco Angatonist % Reduction” value is 7.93%.

In the case of `Cc1ccc(Nc2nc(CSc3nnc(-c4cccnc4)n3-c3ccccc3F)cs2)cc1`, the “Orco 10 + Orco Angatonist % Reduction” value (Orco 10 + Orco) worked out at 47.91%.

For `CCn1c(CNC(=O)COc2ccc(C(C)C)cc2)nnc1SCC(=O)Nc1ccccc1C(C)C`, the “Orco 10 + Orco Angatonist % Reduction” value (Orco 10 + Orco) was 44.74%.

With `CCOc1ccc(-n2c(SCc3cc(=O)oc4cc(C)ccc34)nnc2-c2cccnc2)cc1`, for the setting “Orco 10 + Orco”, the “Orco 10 + Orco Angatonist % Reduction” value was found to be 12.48%.

Turning to `CCOc1ccc(-n2c(SCc3cc(=O)oc4cc(C)c(C(C)C)cc34)nnc2-c2cccnc2)cc1`, the “Orco 10 + Orco Angatonist % Reduction” value (Orco 10 + Orco) turned out to be 48.28%.

For the compound `O=C(CSc1nnc(-c2cccnc2)n1-c1ccccc1)c1c[nH]c2ccccc12`, under “Orco 10 + Orco”, the “Orco 10 + Orco Potentiator % increase” value is given as 13.63%.

Take `O=C(CSc1nnc(-c2cccnc2)n1Cc1ccco1)N1c2ccccc2Sc2ccccc21` [drawing 497]: the “Orco 10 + Orco Angatonist % Reduction” value (Orco 10 + Orco) was found to be 53.70%.

As for `CCOC(=O)CN(C(=O)CSc1nnc(CNc2ccc(C)cc2C)n1CC)c1ccccc1`, the “Orco 10 + Orco Angatonist % Reduction” value (Orco 10 + Orco) was 57.34%.

Regarding `Fc1ccc(CSc2nnc(-c3cccnc3)n2Cc2ccco2)cc1`, the “Orco 10 + Orco Angatonist % Reduction” value (Orco 10 + Orco) is reported as 16.64%.

Consider `CCc1cccc(CC)c1NC(=O)CSc1nnc(C(C)C)n1CC`, for which the “Orco 10 + Orco Potentiator % increase” value (10 + Orco) is reported as 13.90%.

Turning to `CCn1c(CNc2ccc(F)cc2)nnc1SCC(=O)N1CCCc2ccccc21`, the “Orco 10 + Orco Angatonist % Reduction” value (Orco 10 + Orco) worked out at 18.47%.

In the case of `Cc1ccc(-n2c(SCC(=O)NCc3ccco3)nnc2-c2cccnc2)c(C)c1`, the “Orco 10 + Orco Angatonist % Reduction” value (Orco 10 + Orco) is given as 15.51%.

For `CCn1c(SCC(=O)Nc2ccc3c(c2)OCCO3)nnc1-c1c[nH]c2ccccc12`, the “Orco 10 + Orco Angatonist % Reduction” value (Orco 10 + Orco) is on record as 17.90%.

`Cc1ccccc1-n1c(SCc2csc(Nc3ccccc3)n2)nnc1-c1cccnc1`: the “Orco 10 + Orco Angatonist % Reduction” value (Orco 10 + Orco) amounted to 56.98%.

With `CCn1c(CNC(=O)c2ccco2)nnc1SCC(=O)Nc1cc(C(F)(F)F)ccc1Cl`, the “Orco 10 + Orco Angatonist % Reduction” value (Orco 10 + Orco) amounted to 15.97%.

Turning to `Clc1ccc(CSc2nnc(-c3cccnc3)n2Cc2ccco2)c(Cl)c1`, the “Orco 10 + Orco Angatonist % Reduction” value (Orco 10 + Orco) was 49.50%.

Consider `CC(C)c1ccccc1-n1c(SCC(=O)N2CCN(c3ccccc3)CC2)nnc1-c1cccnc1`, for which the “Orco 10 + Orco Angatonist % Reduction” value (Orco 10 + Orco) turned out to be 42.29%.

Consider `CCn1c(COc2cccc(OC)c2)nnc1SCC(=O)Nc1ccccc1C(=O)OC`, for which the “Orco 10 + Orco Angatonist % Reduction” value (Orco 10 + Orco) worked out at 72.23%.

As to `CC(C)c1ccccc1-n1c(SCc2cc(=O)oc3ccc4ccccc4c23)nnc1-c1cccnc1`, the “Orco 10 + Orco Angatonist % Reduction” value (Orco 10 + Orco) came to 26.15%.

Consider `Cc1ccc(-n2c(SCC(=O)N3CCCc4ccccc43)nnc2-c2cccnc2)c(C)c1`, for which, under “Orco 10 + Orco”, the “Orco 10 + Orco Angatonist % Reduction” value came out at 26.04%.

In the case of `CCOC(=O)c1c(NC(=O)CSc2nnc(-c3cccnc3)n2Cc2ccco2)sc(C)c1C`, under “Orco 10 + Orco”, the “Orco 10 + Orco Angatonist % Reduction” value was determined as 30.44%.

For `CCn1c(COc2ccc3c(c2)CCCC3)nnc1SCC(=O)Nc1ccc(C(=O)OC)cc1`, the “Orco 10 + Orco Potentiator % increase” value (Orco 10 + Orco) was 18.19%.

`CCOc1ccccc1-n1c(SCC(=O)N2CCCc3ccccc32)nnc1-c1cccnc1`: the “Orco 10 + Orco Angatonist % Reduction” value (Orco 10 + Orco) was determined as 29.87%.

In the case of `CCn1c(COc2cccc(OC)c2)nnc1SCC(=O)Nc1cc(OC)ccc1OC`, the “Orco 10 + Orco Angatonist % Reduction” value (Orco 10 + Orco) was 30.79%.

For `CCn1c(CNC(=O)COc2ccc(C(C)C)cc2)nnc1SCC(=O)Nc1ccccc1F`, under “Orco 10 + Orco”, the “Orco 10 + Orco Angatonist % Reduction” value came out at 11.35%.

For `CCn1c(SCC(=O)N2c3ccccc3CCc3ccccc32)nnc1-c1ccco1`, the “Orco 10 + Orco Angatonist % Reduction” value (Orco 10 + Orco) worked out at 13.40%.

Take `CCOC(=O)CN(C(=O)CSc1nnc(CNc2ccc(F)cc2)n1CC)c1ccc(F)cc1`: under “Orco 10 + Orco”, the “Orco 10 + Orco Angatonist % Reduction” value was 8.24%.

As to `CCn1c(SCC(=O)N2c3ccccc3CCc3ccccc32)nnc1-c1ccc(OC)cc1`, the “Orco 10 + Orco Angatonist % Reduction” value (Orco 10 + Orco) was found to be 41.48%.

`c1ccc(CSc2nnc(-c3cccnc3)n2Cc2ccccc2)cc1`: the “Orco 10 + Orco Angatonist % Reduction” value (Orco 10 + Orco) is listed as 16.73%.

Consider `Cc1ccc(Nc2nc(CSc3nnc(-c4cccnc4)n3-c3ccccc3C)cs2)cc1`, for which the “Orco 10 + Orco Angatonist % Reduction” value (Orco 10 + Orco) is reported as 52.47%.

Turning to `CCCn1c(SCC(=O)NCCc2ccccc2)nnc1-c1cccnc1`, the “Orco 10 + Orco Potentiator % increase” value (10 + Orco) is 12.58%.

Take `CCc1ccc(NC(=O)CSc2nnc(-c3cccs3)n2CC)cc1`: the “Orco 10 + Orco Angatonist % Reduction” value (Orco 10 + Orco) was 32.93%.

`CCn1c(SCC(=O)Nc2ccccc2C(=O)OC)nnc1-c1cccc(C)c1`: where the note is “Orco 10 + Orco”, the “Orco 10 + Orco Angatonist % Reduction” value is listed as 16.03%.

For the compound `CCn1c(SCCC(=O)O)nnc1-c1cccnc1`, the “Orco 10 + Orco Potentiator % increase” value (10 + Orco) was determined as 15.74%.

Turning to `C=CCn1c(SCc2cccc3ccccc23)nnc1-c1cccnc1`, the “Orco 10 + Orco Angatonist % Reduction” value (Orco 10 + Orco) turned out to be 13.43%.

As for `Cc1ccccc1-n1c(SC(C)C(N)=O)nnc1-c1cccnc1` (stereo not drawn), the “Orco 10 + Orco Potentiator % increase” value (Orco 10 + Orco) was found to be 16.98%.

Take `C=CCn1c(SCc2nc(N)nc(N(C)C)n2)nnc1-c1cccnc1`: where the note is “Orco 10 + Orco”, the “Orco 10 + Orco Potentiator % increase” value was 17.15%.

Take `Clc1ccccc1CSc1nnc(-c2cccnc2)n1Cc1ccco1`: where the note is “Orco 10 + Orco”, the “Orco 10 + Orco Angatonist % Reduction” value is listed as 33.76%.

With `CCn1c(SCC(=O)Nc2ccc(OCc3ccccc3)cc2)nnc1-c1ccco1`, the “Orco 10 + Orco Angatonist % Reduction” value (Orco 10 + Orco) worked out at 28.44%.

`Cc1ccc(-n2c(SCC(=O)NCc3ccc4c(c3)OCO4)nnc2-c2cccnc2)c(C)c1`: the “Orco 10 + Orco Angatonist % Reduction” value (Orco 10 + Orco) was 31.14%.

With `N#Cc1ccc(CSc2nnc(-c3cccnc3)n2-c2ccccc2)cc1`, under “Orco 10 + Orco”, the “Orco 10 + Orco Angatonist % Reduction” value turned out to be 20.08%.
